{"source": "patent US20090155388A1", "about": "“WEIGHT PHYTO-NUTRACEUTICAL SYNERGISTIC COMPOSITION” (priority 2006, published 2009)", "origin": "cited, not measured here", "key": {"[1]": {"conditions": "10 studies"}, "[2]": {"conditions": "36 obese patients, maintenance period"}, "lipoprotein lipase (LPL)": {"tested_on": "lipoprotein lipase (LPL)", "conditions": "vanadate-stimulated"}, "[3]": {"tested_on": "bacterial resistance mechanism (multidrug pump)", "conditions": "in vitro"}, "[4]": {"conditions": "female mice"}, "[5]": {"conditions": "89 mildly overweight women"}, "[6]": {"conditions": "in vivo"}, "[7]": {"conditions": "third ventricle (i.c.v.) administration"}, "[8]": {"tested_on": "FAS (fatty acid synthase)"}}}
{"molecule": "Chromium picolinate", "values": [{"measurement": "effect on reducing body weight compared with placebo", "setting": "[1]", "result": "relatively small effect"}, {"measurement": "lean body mass", "setting": "[2]", "result": "able to increase lean body mass"}, {"measurement": "insulin sensitivity", "setting": "37 patients, with sulfonylurea agents", "result": "significantly improves insulin sensitivity"}, {"measurement": "body weight gain and visceral fat accumulation", "setting": "compared with placebo", "result": "significantly attenuated body weight gain and visceral fat accumulation"}]}
{"molecule": "C[C@@H]1O[C@@H](O[C@H]2C(=O)c3c(O)cc(O)cc3O[C@@H]2c2ccc(O)c(O)c2)[C@H](O)[C@H](O)[C@H]1O", "note": "[Astilbin, astilbin]", "values": [{"measurement": "release of LPL activity", "setting": "lipoprotein lipase (LPL)", "result": "enhanced the release of lipoprotein lipase (LPL) activity"}]}
{"molecule": "COc1cc([C@H]2Oc3cc(-c4cc(=O)c5c(O)cc(O)cc5o4)cc(OC)c3O[C@@H]2CO)ccc1O", "note": "(racemic) [5′-methoxyhydnocarpin (5′-MHC), 5′-methoxyhydnocarpin]", "values": [{"measurement": "potentiation of activity of berberine alkaloids", "setting": "[3]", "result": "strongly potentiated"}]}
{"molecule": "CNCCC(Oc1ccc(C(F)(F)F)cc1)c1ccccc1", "note": "(stereo not drawn) [fluoxetine]", "values": [{"measurement": "hyperphagic effect of 5-HT depletor, 5-HT1A agonist, 5-HT antagonist and glucose antimetabolite", "setting": "[4]", "result": "significantly antagonized"}]}
{"molecule": "O=C(O)CC(O)(C(=O)O)C(O)C(=O)O", "note": "(single isomer, unassigned; (-)) [(−)-Hydroxycitric acid (HCA), (−)-Hydroxycitric acid]", "values": [{"measurement": "reduction of body weight", "setting": "[5]", "result": "significantly greater reduction of body weight"}, {"measurement": "body weight, feed consumption, adverse effects", "setting": "[6]", "result": "significant decrease in body weight and reduction in feed consumption without any adverse effects"}]}
{"molecule": "C/C=C(\\C)C(=O)O[C@@H]1C[C@H]2[C@@H](CC=C3C[C@@H](O[C@H]4C[C@H](OC)[C@H](O[C@H]5C[C@H](OC)[C@H](O[C@@H]6O[C@H](C)[C@@H](O)[C@H](OC)[C@H]6O)[C@@H](C)O5)[C@@H](C)O4)CC[C@@]32C)[C@@]2(O)CC[C@H](C(C)=O)[C@@]12C", "note": "[P57AS3]", "values": [{"measurement": "increase of ATP content", "setting": "hypothalamic neurons", "result": "50-150%"}, {"measurement": "reduction of subsequent 24-h food intake", "setting": "[7]", "result": "40-60%"}]}
{"molecule": "catechin gallate [(−)-CG]", "values": [{"measurement": "inhibition of FAS", "setting": "[8]", "result": "very potent inhibitor of FAS"}]}
